In series [1] the target is T1, VCAM-1 (Homo sapiens, UniProt P19320).
T1 sequence (P19320 25-739): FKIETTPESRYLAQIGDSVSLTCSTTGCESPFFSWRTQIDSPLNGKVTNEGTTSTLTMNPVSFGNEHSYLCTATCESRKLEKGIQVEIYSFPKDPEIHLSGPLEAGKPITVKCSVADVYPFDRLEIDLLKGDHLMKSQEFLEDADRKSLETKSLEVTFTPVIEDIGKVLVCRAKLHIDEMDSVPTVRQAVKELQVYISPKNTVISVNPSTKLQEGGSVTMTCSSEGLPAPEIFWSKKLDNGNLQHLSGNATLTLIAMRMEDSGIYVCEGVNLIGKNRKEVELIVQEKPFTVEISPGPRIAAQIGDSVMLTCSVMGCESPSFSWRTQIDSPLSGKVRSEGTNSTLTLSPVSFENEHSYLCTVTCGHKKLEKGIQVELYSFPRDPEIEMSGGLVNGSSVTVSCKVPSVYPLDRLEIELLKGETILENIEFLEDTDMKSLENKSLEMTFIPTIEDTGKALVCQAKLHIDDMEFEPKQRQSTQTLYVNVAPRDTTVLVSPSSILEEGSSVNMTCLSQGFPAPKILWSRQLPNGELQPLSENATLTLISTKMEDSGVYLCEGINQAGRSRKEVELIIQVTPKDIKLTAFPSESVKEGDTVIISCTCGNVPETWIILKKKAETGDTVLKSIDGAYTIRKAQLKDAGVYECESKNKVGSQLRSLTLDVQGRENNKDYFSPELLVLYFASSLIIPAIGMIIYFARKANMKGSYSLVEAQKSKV
The note with it: as shown by Ling et al. (2000); cited from earlier work.

Series [2] in a line: Blood kinetics up to 180 minutes after injection. It counts as in vivo, rabbit. Conditions: 180 minutes after the injection. The protocol:
(§1) The tracers ^123I-B2702.84-75 and ^99mTc-B2702.84-75 were evaluated according to the same methodology as was used for Examples 3 and 4, except that the animals were euthanased 180 minutes (30 minutes previously) after the injection of the tracers.
The blood samples for measuring the circulatory tracer activity were taken 1, 2, 5, 10, 20, 25, 30, 60, 120 and 180 minutes after the injection. 180 minutes after the injection, the circulatory activity of ^123I-B2702.84-75 and ^99mTc-B2702.84-75 represents respectively 30% and 15% of the initial activity. It will be recalled that the circulatory activity of ^125I-B2702.84-75 represented approximately 40% of the initial activity 30 minutes after the injection in the experiments described in Example 3.

Series [3] has as its system atheromatous plaques. The experiment in a line: Aortic binding, ex vivo autoradiography, euthanasia after 180 minutes. Conditions: 180 minutes after injection. It counts as in vivo, rabbit. The procedure:
(§2) Samples of blood were taken 1, 2, 5, 10, 15, 20, 25 and 30 minutes after injection of the tracers. The animals were euthanased 30 minutes (examples 2, 3 and 4) or 180 minutes (examples 5 and 6) after injection of the labelled VCAM-1 ligands. Samples of the principal organs were taken. These samples, as well as the blood samples taken, were counted for the radioactivity which they contain. The dorsal aorta, the aortic arch and the ventral aorta were also sampled and immediately placed in 10% formalin. A portion of ventral aorta was placed for 24 hours in 3.7% formaldehyde for subsequent inclusion in paraffin and verification by immunohistology of the presence of VCAM-1.
The dorsal and ventral aortas were placed in contact with a high-resolution phosphorus screen (Fujifilm 08SR2025) in darkness for 18 hours. The screen was then scanned (phosphoimager Fujifilm BAS 5000) and the images of the distribution of the labelled VCAM-1 ligands on the aortas of healthy or hyperlipidemic animals were quantified with the aid of the Scion Image Beta software available on the National Institute of Health internet site. […]
The tracers ^123I-B2702.84-75 and ^99mTc-B2702.84-75 were evaluated according to the same methodology as was used for Examples 3 and 4, except that the animals were euthanased 180 minutes (30 minutes previously) after the injection of the tracers. […]

The nature of series [4]: Biodistribution 180 minutes after the injection. The format is in vivo. The note with it: rabbit, iv, total radioactivity. The procedure: as §2, §1
The binding values are expressed as a percentage of the injected dose per gram of organ (% ID/g).

The source of these data is patent publication US20090208408A1, “USE OF VCAM-1 LIGANDS FOR DETECTING AND/OR TREATING CARDIOVASCULAR DISEASES” (UNIVERSITE JOSEPH FOURIER, priority 2004, published 2009).

Read-outs that look alike come from different tables or passages of the source. Where a SMILES comes first, the peptide text is derived from it. [ ]: non-standard residue; d: D form. Tyr(3-I) = N[C@@H](Cc1ccc(O)c(I)c1)C(=O)O

As for “B2702.84-75/75-84: peptide of sequence YRLAIRLNERRENLRIALRY (SEQ ID no 2), inverse dimer of residues 84-75/75-84 of HLA-B2702 (listed as Homo sapiens)”, the “binding to VCAM-1” value in series [1] is recorded as “bind specifically to VCAM-1”.
In the case of `CC[C@H](C)[C@H](NC(=O)[C@H](C)NC(=O)[C@H](CC(C)C)NC(=O)[C@H](CCCNC(=N)N)NC(=O)[C@@H](N)Cc1ccc(O)c(I)c1)C(=O)N[C@@H](CCCNC(=N)N)C(=O)N[C@@H](CC(C)C)C(=O)N[C@@H](CC(N)=O)C(=O)N[C@@H](CCC(=O)O)C(=O)N[C@@H](CCCNC(=N)N)C(=O)O` [^123I-B2702.84-75] (H-[Tyr(3-I)]RLAIRLNER-OH; N-terminus and C-terminus assumed), the “circulatory activity, of the initial activity” value in series [2] came out at 30%. The “binding on atheromatous plaques of WHHL animals relative to aortas of control animals” value in series [3] is recorded as 17.0 times. The “binding ratio atheromatous plaque / normal aortic zone” value in series [3] (WHHL animals) amounted to 4.0. Also, the tissue uptake at 3 h in series [4] (aorta, Control rabbits (n = 3), read-out: Biodistribution, Aorta) came to 0.011 ± 0.004 %ID/g; in series [4] (aorta, WHHL rabbits (n = 3), read-out: Biodistribution, Aorta), 0.034 ± 0.012 %ID/g; in series [4] (blood, Control rabbits (n = 3), read-out: Biodistribution, Blood), 0.19 ± 0.038 %ID/g; in series [4] (blood, WHHL rabbits (n = 3), read-out: Biodistribution, Blood) it was 0.161 ± 0.048 %ID/g; in series [4] (fat, Control rabbits (n = 3), read-out: Biodistribution, Fat), 0.011 ± 0.001 %ID/g; in series [4] (fat, WHHL rabbits (n = 3), read-out: Biodistribution, Fat) it was 0.015 ± 0.006 %ID/g. The tissue uptake at 3 h in series [4] (heart, Control rabbits (n = 3), read-out: Biodistribution, Heart) is 0.088 ± 0.017 %ID/g; in series [4] (heart, WHHL rabbits (n = 3), read-out: Biodistribution, Heart), 0.088 ± 0.031 %ID/g; in series [4] (kidney, Control rabbits (n = 3), read-out: Biodistribution, Kidney), 0.307 ± 0.052 %ID/g; in series [4] (kidney, WHHL rabbits (n = 3), read-out: Biodistribution, Kidney), 0.49 ± 0.184 %ID/g; in series [4] (liver, Control rabbits (n = 3), read-out: Biodistribution, Liver), 0.086 ± 0.025 %ID/g; in series [4] (liver, WHHL rabbits (n = 3), read-out: Biodistribution, Liver) it was 0.096 ± 0.029 %ID/g. Also, the tissue uptake at 3 h in series [4] (lung, Control rabbits (n = 3), read-out: Biodistribution, Lung) is 0.138 ± 0.028 %ID/g; in series [4] (lung, WHHL rabbits (n = 3), read-out: Biodistribution, Lung), 0.163 ± 0.044 %ID/g; in series [4] (muscle, Control rabbits (n = 3), read-out: Biodistribution, Muscle) it was 0.028 ± 0.003 %ID/g; in series [4] (muscle, WHHL rabbits (n = 3), read-out: Biodistribution, Muscle) it was 0.026 ± 0.009 %ID/g; in series [4] (spleen, Control rabbits (n = 3), read-out: Biodistribution, Spleen) it was 0.076 ± 0.015 %ID/g; in series [4] (spleen, WHHL rabbits (n = 3), read-out: Biodistribution, Spleen), 0.089 ± 0.029 %ID/g. Besides, the tissue uptake at 3 h was found to be 0.095 ± 0.025 %ID/g in series [4] (stomach, Control rabbits (n = 3), read-out: Biodistribution, Stomach) and 0.114 ± 0.04 %ID/g in series [4] (stomach, WHHL rabbits (n = 3), read-out: Biodistribution, Stomach).
